The values below come from ChEMBL document CHEMBL2429792, “2D QSAR of heteroaryl-substituted propanolamines as antihypertensive agents” (2013).

The assay is filed under the species Rattus norvegicus. The assay is described as follows: Antihypertensive activity in rat assessed as inhibition of isoproterenol-induced tachycardia. Type of assay: functional.

In the case of `N#Cc1ccccc1OCC(O)CNCCNC(=O)Cc1c[nH]c2ccccc12` (stereo unspecified), the log1/activity was 6.44. For `CNC(=O)Nc1ccc(C(=O)NCCNCC(O)COc2cccc3c2OCCO3)cc1` (stereo unspecified), the log1/activity stood at 7.34. Under `O=C(NCCNCC(O)COc1ccccc1)c1ccncc1` (stereo unspecified) stands 5.79; under `O=C(NCCNCC(O)COc1cccc2ccccc12)c1ccco1` (stereo unspecified), 4.73; under `N#Cc1ccccc1OCC(O)CNCCNC(=O)c1ccco1` (stereo unspecified), 4.73. As to `Cc1ccccc1OCC(O)CNCCNC(=O)c1ccco1` (stereo unspecified), the log1/activity was found to be 5.38.

For the compound `COc1ccc2c(O)cc(CC(=O)NCCNCC(O)COc3ccccc3C#N)nc2c1` (stereo unspecified), the log1/activity is given as 6.65. Then `CC(C)C(=O)NCCNCC(O)COc1cccc2[nH]ccc12` (stereo unspecified), with 7.2; and `N#Cc1ccccc1OCC(O)CNCCNC(=O)Cc1cccs1` (stereo unspecified), with 6.95; and `CC(C)C(=O)NCCNCC(O)COc1cccc2sccc12` (stereo unspecified), with 5.82. Then `O=C(NCCNCC(O)COc1cccc2c1OCCO2)c1ccc(O)cc1` (stereo unspecified), with 6.41. Under `O=C(Cc1ccccc1)NCCNCC(O)COc1cccc2c1OCCO2` (stereo unspecified) stands 5.41.

Consider `Cc1cc(C(=O)NCCNCC(O)COc2ccccc2C#N)[nH]n1` (stereo unspecified), for which the log1/activity is given as 4.78. Under `O=C(NCCNCC(O)COc1cccc2occc12)Nc1ccccc1` (stereo unspecified) stands 5.56.

For `CC(=O)c1ccc(C(=O)NCCNCC(O)COc2cccc3c2OCCO3)cc1` (stereo unspecified), the log1/activity is reported as 6.31. Then `O=C(NCCNCC(O)COc1ccccc1)c1cc2ccccc2[nH]1` (stereo unspecified), with 4.54; and `N#Cc1ccccc1OCC(O)CNCCNC(=O)c1ccc2ccccc2n1` (stereo unspecified), with 4.59. Under `N#Cc1ccccc1OCC(O)CNCCNC(=O)Cc1csc(-c2ccc(Cl)cc2)n1` (stereo unspecified) stands 4.89; under `O=C(NCCNCC(O)COc1cccc2c1OCCO2)Nc1ccccc1` (stereo unspecified), 4.58. Under `O=C(NCCNCC(O)COc1ccccc1)c1ccco1` (stereo unspecified) stands 5.48. Regarding `COc1cc(CC(=O)NCCNCC(O)COc2ccccc2C#N)nc(-c2ccc(Cl)cc2)n1` (stereo unspecified), the log1/activity came out at 4.69. For the compound `CC(C)C(=O)NCCNCC(O)COc1nccs1` (stereo unspecified), the log1/activity was 5.91. Under `N#Cc1ccccc1OCC(O)CNCCNC(=O)c1cc2ccccc2[nH]1` (stereo unspecified) stands 4.57. Under `Nc1ccc(C(=O)NCCNCC(O)COc2cccc3c2OCCO3)cc1` (stereo unspecified) stands 5.5; under `C=CCOc1ccccc1OCC(O)CNCCNC(=O)c1ccco1` (stereo unspecified), 5.07. Under `O=C(NCCNCC(O)COc1cccc2sccc12)Nc1ccccc1` (stereo unspecified) stands 4.88. Turning to `O=C(NCCNCC(O)COc1cccc2c1OCCC2=O)Nc1ccccc1` (stereo unspecified), the log1/activity is on record as 4.83.

As to `O=C(NCCNCC(O)COc1ccccc1I)c1ccco1` (stereo unspecified), the log1/activity is given as 5.27. Then `CC(C)C(=O)NCCNCC(O)COc1cccc2nsnc12` (stereo unspecified), with 4.52; and `O=C(NCCNCC(O)COc1ccccc1O)C1CCCO1` (stereo unspecified), with 5.16. Then `CC(C)C(=O)NCCNCC(O)COc1nsnc1N1CCOCC1` (stereo unspecified), with 6.34. Under `NC(=O)c1ccccc1OCC(O)CNCCNC(=O)c1cccs1` (stereo unspecified) stands 4.78; under `O=C(NCCNCC(O)COc1ccccc1)c1cccs1` (stereo unspecified), 5.92. Take `Cc1cccc(OCC(O)CNCCNC(=O)c2ccco2)c1` (stereo unspecified): the log1/activity amounted to 4.9. Under `CC(=O)Nc1ccc(OCC(O)CNC(C)C)cc1` (stereo unspecified) [PRACTOLOL] stands 5.72. Then `CC(C)NCC(O)COc1cccc2ccccc12` (stereo unspecified) [PROPRANOLOL], with 6.11.
